We go through twelve compounds from patent US12281057B2 (VERTEX PHARMACEUTICALS INCORPORATED, priority 2017, dated 2025).

The target in one assay is truncated form of human NaV 1.8 with full channel activity (Homo sapiens, UniProt Q9Y5Y9). Description: E-VIPR Assay Method A for detecting and measuring Nav inhibition (HEK cells, membrane potential FRET dyes, electrical stimulation). To be noted: HEK cells expressing human NaV 1.8, HS (human serum) in compound loading buffer, 11 point dose response, top dose 3 μM, Table 20, read-out: Nav 1.8 MedChem Optical Assay EVIPR Assay Method A HS IC50. In kind it is cell-based. An excerpt: E-VIPR Assay Method A for Detecting and Measuring Nav Inhibition Properties Sodium ion channels are voltage-dependent proteins that can be activated by inducing membrane voltage changes by applying electric fields. The electrical stimulation instrument and methods of use, referred to as E-VIPR, are described in International Publication No. WO 2002/008748 A3 and C.-J. Huang et al. Characterization of voltage-gated sodium channel blockers by electrical stimulation and fluorescence detection of membrane potential, 24 Nature Biotech. 439-46 (2006), both of which are incorporated by reference in their entirety. The instrument comprises a microtiter plate handler, an optical system for exciting the coumarin dye while simultaneously recording the coumarin and oxonol emissions, a waveform generator, a current- or voltage-controlled amplifier, and parallel electrode pairs that are inserted into assay plate wells. Under integrated computer control, this instrument passes user-programmed electrical stimulus protocols to cells within the wells of the microtiter plate. […] Sigma #F4135), 1% NEAA (Non-Essential Amino Acids, Life Tech #11140), 1% HEPES (Life Tech #15630), 1% Pen-Strep (Penicillin-Streptomycin; […] Cells were expanded in vented cap flasks, with 95% humidity and 5% CO2. Reagents and Stock Solutions: • 100 mg/mL Pluronic F-127 (Sigma #P2443), in dry DMSO • Compound Plates: […] 5% KIR 2.1 Bacmam virus (produced in-house), prepared as described in Section 3.3 of J. A. […] The solution was made by adding 10% Pluronic F127 stock equal to combined volumes of CC2-DMPE and DiSBAC6(3). The order of preparation was first mix Pluronic and CC2-DMPE, then add DiSBAC6(3), then while vortexing add Bath1/β-Cyclodextrin. […] Assay Protocol: […] Final DMSO concentration for all wells in the assay was 0.625% (0.75% DMSO was supplemented to the Compound Loading Buffer for a final DMSO concentration of 0.625%). […] 3) Cell plates were prepared. On the day of the assay, the media was aspirated, and the cells were washed three times with 80 μL of Bath-1 buffer, maintaining 25 μL residual volume in each well. 4) 25 μL per well of Hexyl Dye Solution was dispensed into the cell plates. The cells were incubated for 20 minutes at room temp or ambient conditions in darkness. 5) 80 μL per well of Compound Loading Buffer was dispensed into compound plates. 6) The cell plates were washed three times with 80 μL per well of Bath-1 Buffer, leaving 25 µL of residual volume. Then 25 uL per well from compound plate was transferred to each cell plate. The mixture was incubated for 30 minutes at room temp/ambient conditions. 7) The plate was read on E-VIPR using the current-controlled amplifier to deliver stimulation wave pulses using the following protocol: 1.25 Amps, 2.5 ms pulse width biphasic waveform, 10 Hz for 10 seconds at a scan rate of 200 Hz. A pre-stimulus recording was performed for 0.5 seconds to obtain the un-stimulated intensities baseline. The stimulatory waveform was followed by 0.5 seconds of post-stimulation recording to examine the relaxation to the resting state. Data Analysis: Data were analyzed and reported as normalized ratios of emission intensities measured in the 460 nm and 580 nm channels. The response as a function of time was reported as the ratios obtained using the following formula: […] The data were further reduced by calculating the initial (Ri) and final (Rf) ratios. These were the average ratio values during part or all of the pre-stimulation period and during sample points during the stimulation period. The fluorescence ratio (Rf/Ri) was then calculated and reported as a function of time. Control responses were obtained by performing assays in the presence of the positive control, and in the absence of pharmacological agents (DMSO vehicle negative control). Responses to the negative (N) and positive (P) controls were calculated as above. The compound antagonist % activity A was then defined as: [formula] where X is the ratio response of the test compound. […]
truncated form of human NaV 1.8 with full channel activity, sequence (Q9Y5Y9 126-1722 limits assumed): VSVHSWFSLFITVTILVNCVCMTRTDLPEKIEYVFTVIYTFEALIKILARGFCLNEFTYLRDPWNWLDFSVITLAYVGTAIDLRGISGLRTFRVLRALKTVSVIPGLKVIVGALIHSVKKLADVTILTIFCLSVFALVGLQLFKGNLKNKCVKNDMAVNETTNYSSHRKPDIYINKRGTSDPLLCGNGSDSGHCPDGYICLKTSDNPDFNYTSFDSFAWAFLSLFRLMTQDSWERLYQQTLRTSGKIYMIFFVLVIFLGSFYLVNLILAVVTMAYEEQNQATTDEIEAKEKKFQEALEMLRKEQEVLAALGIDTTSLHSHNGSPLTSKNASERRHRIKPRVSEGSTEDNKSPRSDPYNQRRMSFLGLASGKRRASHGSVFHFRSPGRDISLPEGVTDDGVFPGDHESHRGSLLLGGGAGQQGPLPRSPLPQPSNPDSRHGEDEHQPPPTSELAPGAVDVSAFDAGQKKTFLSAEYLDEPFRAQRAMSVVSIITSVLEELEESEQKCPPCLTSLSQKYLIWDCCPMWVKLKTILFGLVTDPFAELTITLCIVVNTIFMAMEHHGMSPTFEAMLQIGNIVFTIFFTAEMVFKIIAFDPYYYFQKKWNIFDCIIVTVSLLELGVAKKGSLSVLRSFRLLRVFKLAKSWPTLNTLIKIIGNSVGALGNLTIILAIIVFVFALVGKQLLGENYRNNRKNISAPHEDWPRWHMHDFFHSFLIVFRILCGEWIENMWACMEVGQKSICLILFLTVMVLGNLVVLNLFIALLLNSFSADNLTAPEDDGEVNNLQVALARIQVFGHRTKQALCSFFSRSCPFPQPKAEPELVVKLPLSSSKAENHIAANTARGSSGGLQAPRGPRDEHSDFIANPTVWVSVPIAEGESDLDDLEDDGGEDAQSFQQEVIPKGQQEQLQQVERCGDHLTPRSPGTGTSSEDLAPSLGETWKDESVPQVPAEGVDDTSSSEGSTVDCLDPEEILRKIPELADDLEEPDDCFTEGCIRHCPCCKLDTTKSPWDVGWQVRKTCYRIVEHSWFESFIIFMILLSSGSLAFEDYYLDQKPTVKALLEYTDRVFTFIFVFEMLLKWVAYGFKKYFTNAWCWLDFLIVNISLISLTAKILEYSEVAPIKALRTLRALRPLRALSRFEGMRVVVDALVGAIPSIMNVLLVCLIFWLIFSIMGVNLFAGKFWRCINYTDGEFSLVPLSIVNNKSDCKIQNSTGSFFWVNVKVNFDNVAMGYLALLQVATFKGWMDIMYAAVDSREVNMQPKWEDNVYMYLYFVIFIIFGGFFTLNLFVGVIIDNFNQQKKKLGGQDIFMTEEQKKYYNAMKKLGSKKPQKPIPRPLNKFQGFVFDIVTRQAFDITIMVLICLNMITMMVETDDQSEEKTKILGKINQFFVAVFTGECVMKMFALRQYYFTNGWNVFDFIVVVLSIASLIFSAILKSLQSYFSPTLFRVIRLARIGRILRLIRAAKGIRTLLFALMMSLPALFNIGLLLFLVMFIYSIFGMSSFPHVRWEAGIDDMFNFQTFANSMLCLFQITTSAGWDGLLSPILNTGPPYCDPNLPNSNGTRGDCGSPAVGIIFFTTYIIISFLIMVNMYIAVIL
By IC50 is commonly meant the concentration needed to halve the response being measured. As for `NC(=O)c1cc(NC(=O)c2c(Oc3ccc(OC(F)(F)F)c(F)c3)ccc(C(F)(F)F)c2F)ccc1F` [Compound 18, N-(3-carbamoyl-4-fluoro-phenyl)-2-fluoro-6-[3-fluoro-4-(trifluoromethoxy)phenoxy]-3-(trifluoromethyl)benzamide], the IC50 worked out at 9 nM.

Turning to `COc1cc(OC(F)(F)F)ccc1Oc1ccc(C(F)(F)C(F)(F)F)cc1C(=O)Nc1ccc(F)c(C(N)=O)c1` [Compound 19, N-(3-carbamoyl-4-fluoro-phenyl)-2-[2-methoxy-4-(trifluoromethoxy)phenoxy]-5-(1,1,2,2,2-pentafluoroethyl)benzamide], the half-inhibitory concentration (IC50) stood at 10 nM.

Take `COc1cc(OC(F)(F)F)ccc1Oc1cc(OC(F)F)cc(F)c1C(=O)Nc1ccnc(C(N)=O)c1` [Compound 20, 4-[[4-(difluoromethoxy)-2-fluoro-6-[2-methoxy-4-(trifluoromethoxy)phenoxy]benzoyl]amino]pyridine-2-carboxamide]: the IC50 was 10 nM.

For the compound `NC(=O)c1cc(NC(=O)c2c(Oc3ccc(OC(F)(F)F)cc3F)ccc(C(F)(F)F)c2F)ccc1F` [Compound 21, N-(3-carbamoyl-4-fluoro-phenyl)-2-fluoro-6-[2-fluoro-4-(trifluoromethoxy)phenoxy]-3-(trifluoromethyl)benzamide], the half-inhibitory concentration (IC50) amounted to 10 nM.

Turning to `COc1cc(OC(F)(F)F)ccc1Oc1cc(C2CC2)cc(F)c1C(=O)Nc1ccnc(C(N)=O)c1` [Compound 22, 4-[[4-cyclopropyl-2-fluoro-6-[2-methoxy-4-(trifluoromethoxy)phenoxy]benzoyl]amino]pyridine-2-carboxamide], the IC50 was found to be 11 nM.

As for `COc1cc(OC(F)(F)F)ccc1Oc1cc(C(F)(F)F)c(F)cc1C(=O)Nc1ccc(F)c(C(N)=O)c1` [Compound 23, N-(3-carbamoyl-4-fluoro-phenyl)-5-fluoro-2-[2-methoxy-4-(trifluoromethoxy)phenoxy]-4-(trifluoromethyl)benzamide], the 50% inhibitory concentration (IC50) amounted to 14 nM.

Take `[2H]C([2H])([2H])Oc1cc(OC(F)(F)F)ccc1Oc1ccc(C(F)(F)F)c(F)c1C(=O)Nc1ccc(C(N)=O)nc1` [Compound 24, 5-[[2-fluoro-6-[2-(trideuteriomethoxy)-4-(trifluoromethoxy)phenoxy]-3-(trifluoromethyl)benzoyl]amino]pyridine-2-carboxamide]: the IC50 amounted to 18 nM.

Turning to `NC(=O)c1cc(NC(=O)c2c(Oc3ccc(F)cc3)ccc(C(F)(F)F)c2F)ccc1F` [Compound 25, N-(3-carbamoyl-4-fluoro-phenyl)-2-fluoro-6-(4-fluorophenoxy)-3-(trifluoromethyl)benzamide], the IC50 was found to be 18 nM.

`COc1c(Oc2ccc(C(F)(F)F)c(F)c2C(=O)Nc2ccnc(C(N)=O)c2)ccc(OC(F)(F)F)c1F` [Compound 26, 4-[[2-fluoro-6-[3-fluoro-2-methoxy-4-(trifluoromethoxy)phenoxy]-3-(trifluoromethyl)benzoyl]amino]pyridine-2-carboxamide]: the IC50 is 2 nM.

Staying with this assay, now noted: HEK cells expressing human NaV 1.8, HS (human serum) in compound loading buffer, 11 point dose response, top dose 3 μM, Table 20A, read-out: Nav 1.8 MedChem Optical Assay EVIPR Assay Method A HS IC50.
`COc1cc(OC(F)(F)F)ccc1Oc1cc(C(F)(F)F)ccc1C(=O)Nc1ccc(F)c(C(N)=O)c1` [Compound 27, N-(3-Carbamoyl-4-fluoro-phenyl)-2-[2-methoxy-4-(trifluoromethoxy)phenoxy]-4-(trifluoromethyl)benzamide]: the IC50 is 87 nM.

With `COc1cc(OC(F)(F)F)ccc1Oc1cc(C(F)(F)F)ccc1C(=O)Nc1cccc(C(N)=O)c1` [Compound 28, N-(3-Carbamoylphenyl)-2-[2-methoxy-4-(trifluoromethoxy)phenoxy]-4-(trifluoromethyl)benzamide], the IC50 stood at 108 nM.

With `COc1cc(OC(F)(F)F)ccc1Oc1cc(C(F)(F)F)ncc1C(=O)Nc1cccc(C(N)=O)c1` [Compound 29, N-(3-Carbamoylphenyl)-4-[2-methoxy-4-(trifluoromethoxy)phenoxy]-6-(trifluoromethyl)pyridine-3-carboxamide], the IC50 was 112 nM.
